Our source for the IL-17 production values is patent publication US20250057928A1, “VACCINE COMPOSITION FOR INDUCING ANTI-IL-23 ANTIBODY” (OSAKA UNIVERSITY, priority 2021, published 2025).

For the test, the system named is IL-17 production when mouse splenocytes were stimulated with rhIL-23. The test can be described thus: Neutralization activity of IgG purified from monkey antiserum: IL-17 production of mouse splenocytes stimulated with rhIL-23. The test is classed as cell-based. The note with it: 300 μg/mL of IgG derived from monkey antiserum (6 weeks). The procedure: AJP001 conjugated peptide (SEQ ID NOs: 6-37) was dissolved in physiological saline, mixed with an equal amount of 2% Alhydrogel (invivogen), and this was intradermally administered to BALB/c mice (female, 6-week-old, N=5-6) at 0.5 mg/body 3 times at two-week intervals. Blood was collected before administration and at the time point of 6 weeks after initial administration, and the antibody titer (GMT) to each epitope sequence and binding ability to recombinant human IL-23 protein (rhIL-23) (Peprotech) were measured by the ELISA method (same method as in Example 1). The binding to rhIL-23 was evaluated by a binding ratio to normal serum by calculating the ratio of the absorbance of a well added with normal mouse serum to the absorbance of a well added with antiserum derived from a mouse administered with each AJP001 conjugated peptide (SEQ ID NOs: 6-37). In addition, the neutralization activity of mouse antiserum was evaluated using an action on IL-17 production in rhIL-23 stimulated mouse splenocyte as an index. […]
Then, IgG was purified using Protein G HP spin Trap (GE Healthcare) from the monkey antiserum obtained 6 weeks after the initial administration, and the action on IL-17 production when mouse splenocytes were stimulated with rhIL-23 was evaluated (same method as in Example 5).

Where no end group is shown, it is not given here.

As for “SEQ ID NO 6: AJP001-Ahx-B cell epitope peptide conjugate; epitope SPSQPWQR (human 151-158) (not fully specified (N-terminus); listed as Homo sapiens)”, the IL-17 production result is reported as “suppressed”.
